Measurements published in ChEMBL document CHEMBL3392984, “Two new protein tyrosine phosphatase 1B inhibitors, hyattellactones A and B, from the Indonesian marine sponge Hyattella sp” (Bioorg Med Chem Lett, 2015).
The source made the active and inactive calls. The rule behind the calls is not given here.

Legend:
[1] = molecular target: T1, Tyrosine-protein phosphatase non-receptor type 1 (Homo sapiens) (UniProt P18031); test: Inhibition of PTP1B (unknown origin) at 24.2 uM
T1 sequence (whole entry): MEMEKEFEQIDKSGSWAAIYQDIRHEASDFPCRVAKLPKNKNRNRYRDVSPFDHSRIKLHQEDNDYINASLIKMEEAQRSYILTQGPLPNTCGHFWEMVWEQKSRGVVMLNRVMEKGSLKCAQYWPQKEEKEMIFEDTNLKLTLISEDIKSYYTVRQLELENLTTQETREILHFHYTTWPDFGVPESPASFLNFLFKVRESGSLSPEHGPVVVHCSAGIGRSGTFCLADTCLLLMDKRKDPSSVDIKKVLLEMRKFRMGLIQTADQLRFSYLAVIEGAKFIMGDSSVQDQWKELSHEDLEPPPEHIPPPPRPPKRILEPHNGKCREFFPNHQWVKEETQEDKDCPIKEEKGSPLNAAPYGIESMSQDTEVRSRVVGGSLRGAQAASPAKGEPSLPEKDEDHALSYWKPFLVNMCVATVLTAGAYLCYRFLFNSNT

[2] = test system: Jurkat; test: Cytotoxicity against human Jurkat cells at 24.2 uM; assay type: functional, cell-based
[3] = molecular target: T2, Tyrosine-protein phosphatase non-receptor type 1 (Homo sapiens, UniProt P18031); test: Inhibition of PTP1B (unknown origin)
T2 sequence (P18031 whole entry): T1 sequence (whole entry)

Q: How did the inhibition [1] turn out when CC[C@@]1(C)CCC[C@]2(C)[C@H]3C[C@@H](O)[C@]4(C)C5=C(CC[C@H]4[C@]3(C)CC[C@@H]12)[C@H](C)OC5=O was run?
A: inactive

Q: What about the inhibition [2] of the same molecule?
A: inactive

Q: What does the source list for CC[C@]12CCCC(C)(C)[C@@H]1CC[C@]1(C)[C@@H]2C[C@@H](O)[C@]2(C)C3=C(CC[C@@H]12)[C@@H](C)OC3=O?
A: IC50 [3]: 7.45 µM; inhibition [1]: 42%; inhibition [2]: inactive

Q: Which results are given for CC[C@@]1(C)CCC[C@]2(C)[C@H]3C[C@@H](O)[C@]4(C)C5=C(CC[C@H]4[C@]3(C)CC[C@@H]12)[C@@H](C)OC5=O?
A: IC50 [3]: 7.47 µM; inhibition [1]: inactive; inhibition [2]: inactive

Q: CC[C@]12CCCC(C)(C)[C@@H]1CC[C@]1(C)[C@@H]2C[C@@H](O)[C@]2(C)C3=C(CC[C@@H]12)[C@H](C)OC3=O was tested. Which inhibition [1] did it give?
A: 42%

Q: What about the inhibition [2] of the same molecule?
A: inactive
